Assay results as given in patent US8003665B2, “Salts and polymorphs of a potent antidiabetic compound” (Amgen Inc., priority 2003, dated 2011).

Assay: Moisture sorption/desorption (hygroscopicity)
Assay type: physicochemical
Procedure: Moisture sorption/desorption data were collected on a VTI SGA-100 Vapor Sorption Analyzer. Sorption and desorption data were collected over a range of 5% to 95% relative humidity (“RH”) at 10% RH intervals under nitrogen purge. Samples were not dried prior to analysis. Equilibrium criteria used for analysis were less than 0.0100% weight change in 5 minutes, with a maximum equilibration time of 3 hours if the weight criterion was not met. Data were not corrected for the initial moisture content of the samples. NaCl and PVP were used as calibration standards. This example illustrates the differential scanning calorimetry (DSC) and hygroscopicity analysis of Form I prepared according to Example 6.

O=S(=O)(Nc1cc(Cl)c(Oc2cnc3ccccc3c2)c(Cl)c1)c1ccc(Cl)cc1Cl.O=S(=O)(O)c1ccccc1 [Form I, 2,4-Dichloro-N-[3,5-dichloro-4-(quinolin-3-yloxy)-phenyl]-benzenesulfonamide benzenesulfonate salt]
weight loss (moisture desorption, from 95% to 25% relative humidity): 0.6% | weight gain (moisture sorption, from 25% to 95% relative humidity): 0.6%
